{"source": "paper PMC9653409", "about": "“Generative deep learning enables the discovery of a potent and selective RIPK1 inhibitor” (Nature Communications, 2022)", "assay_in_all_cases": "Kinase inhibitory activity profiling of RI-962@10 µM (406 kinases, Eurofins)", "format_in_all_cases": "biochemical", "key": {"[1]": {"target": "panel of human kinases (kinase named in endpoint) (Homo sapiens, UniProt O14920)", "settings": "10 µM; read-out: Activity (%), IKKβ(h)", "summary_of_the_method": "(§1)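 Radiometric filter-binding kinase assays: enzyme preincubated 15 min with compound in 8 mM MOPS pH 7.0, 0.2 mM EDTA, 250 μM peptide substrate, 10 mM magnesium acetate, 10 μM [γ-33P]-ATP. Reaction started with Mg/ATP, run 40 min at room temperature, stopped with phosphoric acid; 33P incorporation read by scintillation counting. Other kinases by similar protocols.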"}, "[2]": {"target": "panel of human kinases (kinase named in endpoint) (Homo sapiens, UniProt O43781)", "sequence (O43781 whole entry)": "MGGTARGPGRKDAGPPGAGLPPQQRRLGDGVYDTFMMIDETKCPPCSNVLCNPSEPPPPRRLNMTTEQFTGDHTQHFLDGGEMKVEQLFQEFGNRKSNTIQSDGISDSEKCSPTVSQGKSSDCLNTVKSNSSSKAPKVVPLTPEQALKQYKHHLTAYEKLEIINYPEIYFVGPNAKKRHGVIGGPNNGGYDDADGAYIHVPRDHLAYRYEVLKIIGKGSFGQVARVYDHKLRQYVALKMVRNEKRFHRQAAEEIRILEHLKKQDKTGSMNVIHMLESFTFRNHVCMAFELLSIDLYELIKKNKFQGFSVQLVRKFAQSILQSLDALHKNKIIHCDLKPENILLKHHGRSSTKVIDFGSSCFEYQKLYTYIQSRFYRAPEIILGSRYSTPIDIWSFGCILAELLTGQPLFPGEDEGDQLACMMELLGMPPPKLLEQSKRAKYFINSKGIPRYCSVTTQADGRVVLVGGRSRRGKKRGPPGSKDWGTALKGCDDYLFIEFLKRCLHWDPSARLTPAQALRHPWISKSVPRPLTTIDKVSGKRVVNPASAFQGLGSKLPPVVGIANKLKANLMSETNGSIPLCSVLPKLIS", "settings": "10 µM; read-out: Activity (%), DYRK3(h)", "summary_of_the_method": "as §1"}, "[3]": {"target": "panel of human kinases (kinase named in endpoint) (Homo sapiens, UniProt O60285)", "sequence (O60285 whole entry)": "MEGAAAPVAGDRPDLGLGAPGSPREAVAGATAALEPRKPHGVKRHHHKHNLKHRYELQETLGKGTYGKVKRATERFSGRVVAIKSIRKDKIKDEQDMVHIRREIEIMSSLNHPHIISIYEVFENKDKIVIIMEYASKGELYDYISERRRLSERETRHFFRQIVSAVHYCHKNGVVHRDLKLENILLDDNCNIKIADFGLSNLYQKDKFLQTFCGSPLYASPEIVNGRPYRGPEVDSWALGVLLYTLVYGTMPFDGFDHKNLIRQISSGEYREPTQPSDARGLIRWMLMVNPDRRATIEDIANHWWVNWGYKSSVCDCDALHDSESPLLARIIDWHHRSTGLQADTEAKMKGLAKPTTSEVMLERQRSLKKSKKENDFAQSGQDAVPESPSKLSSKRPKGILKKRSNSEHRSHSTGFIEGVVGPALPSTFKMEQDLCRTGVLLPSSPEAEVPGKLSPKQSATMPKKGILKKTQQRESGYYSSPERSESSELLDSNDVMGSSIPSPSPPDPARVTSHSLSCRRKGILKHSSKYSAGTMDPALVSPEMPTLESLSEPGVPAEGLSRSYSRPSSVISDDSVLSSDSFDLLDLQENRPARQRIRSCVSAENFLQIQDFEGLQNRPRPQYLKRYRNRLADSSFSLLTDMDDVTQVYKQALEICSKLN", "settings": "10 µM; read-out: Activity (%), ARK5(h)", "summary_of_the_method": "as §1"}, "[4]": {"target": "panel of human kinases (kinase named in endpoint) (Homo sapiens, UniProt O94804)", "settings": "10 µM; read-out: Activity (%), LOK(h)", "summary_of_the_method": "as §1"}, "[5]": {"target": "panel of human kinases (kinase named in endpoint) (Homo sapiens, UniProt O96013)", "sequence (O96013 whole entry)": "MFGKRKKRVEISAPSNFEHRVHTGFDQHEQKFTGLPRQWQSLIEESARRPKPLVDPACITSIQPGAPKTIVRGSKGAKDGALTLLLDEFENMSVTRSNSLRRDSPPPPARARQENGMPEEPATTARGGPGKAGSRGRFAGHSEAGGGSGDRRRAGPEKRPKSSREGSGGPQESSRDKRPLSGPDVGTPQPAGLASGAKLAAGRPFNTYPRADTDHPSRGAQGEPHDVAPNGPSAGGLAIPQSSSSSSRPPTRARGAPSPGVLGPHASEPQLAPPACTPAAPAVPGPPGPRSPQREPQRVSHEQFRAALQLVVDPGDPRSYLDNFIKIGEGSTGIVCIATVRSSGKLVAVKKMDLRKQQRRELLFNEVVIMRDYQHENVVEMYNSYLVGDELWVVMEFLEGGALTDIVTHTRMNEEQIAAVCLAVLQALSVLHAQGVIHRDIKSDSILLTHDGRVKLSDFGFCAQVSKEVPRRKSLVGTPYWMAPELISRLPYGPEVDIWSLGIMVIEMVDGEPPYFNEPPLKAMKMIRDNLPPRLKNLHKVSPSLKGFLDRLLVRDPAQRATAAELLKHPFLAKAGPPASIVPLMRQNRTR", "settings": "10 µM; read-out: Activity (%), PAK4(h)", "summary_of_the_method": "as §1"}, "[6]": {"target": "panel of human kinases (kinase named in endpoint) (Homo sapiens, UniProt P04629)", "settings": "10 µM; read-out: Activity (%), TrkA(h)", "summary_of_the_method": "as §1"}, "[7]": {"target": "panel of human kinases (kinase named in endpoint) (Homo sapiens, UniProt P06213)", "sequence (P06213 28-1382)": "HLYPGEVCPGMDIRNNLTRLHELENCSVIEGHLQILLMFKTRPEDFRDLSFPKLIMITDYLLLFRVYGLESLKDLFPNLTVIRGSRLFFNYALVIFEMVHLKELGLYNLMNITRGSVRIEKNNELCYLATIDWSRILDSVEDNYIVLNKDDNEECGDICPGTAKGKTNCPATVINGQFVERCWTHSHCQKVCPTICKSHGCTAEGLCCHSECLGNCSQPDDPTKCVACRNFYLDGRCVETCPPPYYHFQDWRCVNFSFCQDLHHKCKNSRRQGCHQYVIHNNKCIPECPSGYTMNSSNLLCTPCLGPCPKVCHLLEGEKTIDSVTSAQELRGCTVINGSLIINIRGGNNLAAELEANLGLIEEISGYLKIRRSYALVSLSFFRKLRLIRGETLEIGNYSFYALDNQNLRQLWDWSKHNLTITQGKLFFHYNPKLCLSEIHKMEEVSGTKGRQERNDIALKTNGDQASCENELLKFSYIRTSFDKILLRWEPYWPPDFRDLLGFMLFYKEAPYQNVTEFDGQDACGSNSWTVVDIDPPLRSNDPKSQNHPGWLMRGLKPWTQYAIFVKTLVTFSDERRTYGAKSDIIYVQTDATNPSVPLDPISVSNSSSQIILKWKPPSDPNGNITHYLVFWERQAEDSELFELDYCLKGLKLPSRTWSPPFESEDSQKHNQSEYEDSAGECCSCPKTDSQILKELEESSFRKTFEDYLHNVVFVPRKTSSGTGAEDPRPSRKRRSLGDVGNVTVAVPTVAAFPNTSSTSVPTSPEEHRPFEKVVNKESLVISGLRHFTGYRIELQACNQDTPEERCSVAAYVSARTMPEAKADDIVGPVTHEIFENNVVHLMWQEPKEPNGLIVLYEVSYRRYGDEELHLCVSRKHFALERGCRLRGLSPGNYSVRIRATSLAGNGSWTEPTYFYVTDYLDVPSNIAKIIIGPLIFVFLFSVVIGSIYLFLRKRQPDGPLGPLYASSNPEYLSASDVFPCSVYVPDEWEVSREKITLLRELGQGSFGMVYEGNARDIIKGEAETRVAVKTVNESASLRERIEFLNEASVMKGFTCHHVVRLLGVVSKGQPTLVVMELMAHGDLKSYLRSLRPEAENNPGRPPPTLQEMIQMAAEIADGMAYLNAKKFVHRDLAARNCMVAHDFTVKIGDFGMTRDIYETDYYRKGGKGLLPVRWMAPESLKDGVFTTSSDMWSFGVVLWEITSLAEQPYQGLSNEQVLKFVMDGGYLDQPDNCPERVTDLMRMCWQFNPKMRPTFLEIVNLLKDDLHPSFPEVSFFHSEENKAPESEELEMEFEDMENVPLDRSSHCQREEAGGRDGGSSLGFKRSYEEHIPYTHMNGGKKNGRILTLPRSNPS", "settings": "10 µM", "summary_of_the_method": "as §1"}, "[8]": {"target": "panel of human kinases (kinase named in endpoint) (Homo sapiens, UniProt P09769)", "settings": "10 µM; read-out: Activity (%), Fgr(h)", "summary_of_the_method": "as §1"}, "[9]": {"target": "panel of human kinases (kinase named in endpoint) (Homo sapiens, UniProt P15735)", "settings": "10 µM; read-out: Activity (%), PhKγ2(h)", "summary_of_the_method": "as §1"}, "[10]": {"target": "panel of human kinases (kinase named in endpoint) (Homo sapiens, UniProt P23458)", "settings": "10 µM; read-out: Activity (%), JAK1(h)", "summary_of_the_method": "as §1"}, "[11]": {"target": "panel of human kinases (kinase named in endpoint) (Homo sapiens, UniProt P43250)", "settings": "10 µM; read-out: Activity (%), GRK6(h)", "summary_of_the_method": "as §1"}, "[12]": {"target": "panel of human kinases (kinase named in endpoint) (Homo sapiens, UniProt P48426)", "settings": "10 µM; read-out: Activity (%), PIP4K2a(h)", "summary_of_the_method": "as §1"}, "[13]": {"target": "panel of human kinases (kinase named in endpoint) (Homo sapiens, UniProt P50750)", "settings": "10 µM; read-out: Activity (%), CDK9/cyclin T1(h)", "summary_of_the_method": "as §1"}, "[14]": {"target": "panel of human kinases (kinase named in endpoint) (Homo sapiens, UniProt P52333)", "settings": "10 µM; read-out: Activity (%), JAK3(h)", "summary_of_the_method": "as §1"}, "[15]": {"target": "panel of human kinases (kinase named in endpoint) (Homo sapiens, UniProt P54753)", "settings": "10 µM; read-out: Activity (%), EphB3(h)", "summary_of_the_method": "as §1"}, "[16]": {"target": "panel of human kinases (kinase named in endpoint) (Homo sapiens, UniProt Q00536)", "settings": "10 µM; read-out: Activity (%), CDK16/cyclinY(h)", "summary_of_the_method": "as §1"}, "[17]": {"target": "panel of human kinases (kinase named in endpoint) (Homo sapiens, UniProt Q13535)", "settings": "10 µM; read-out: Activity (%), ATR/ATRIP(h)", "summary_of_the_method": "as §1"}, "[18]": {"target": "panel of human kinases (kinase named in endpoint) (Homo sapiens, UniProt Q8TD19)", "settings": "10 µM; read-out: Activity (%), NEK9(h)", "summary_of_the_method": "as §1"}, "[19]": {"target": "panel of human kinases (kinase named in endpoint) (Homo sapiens, UniProt Q96L34)", "sequence (Q96L34 whole entry)": "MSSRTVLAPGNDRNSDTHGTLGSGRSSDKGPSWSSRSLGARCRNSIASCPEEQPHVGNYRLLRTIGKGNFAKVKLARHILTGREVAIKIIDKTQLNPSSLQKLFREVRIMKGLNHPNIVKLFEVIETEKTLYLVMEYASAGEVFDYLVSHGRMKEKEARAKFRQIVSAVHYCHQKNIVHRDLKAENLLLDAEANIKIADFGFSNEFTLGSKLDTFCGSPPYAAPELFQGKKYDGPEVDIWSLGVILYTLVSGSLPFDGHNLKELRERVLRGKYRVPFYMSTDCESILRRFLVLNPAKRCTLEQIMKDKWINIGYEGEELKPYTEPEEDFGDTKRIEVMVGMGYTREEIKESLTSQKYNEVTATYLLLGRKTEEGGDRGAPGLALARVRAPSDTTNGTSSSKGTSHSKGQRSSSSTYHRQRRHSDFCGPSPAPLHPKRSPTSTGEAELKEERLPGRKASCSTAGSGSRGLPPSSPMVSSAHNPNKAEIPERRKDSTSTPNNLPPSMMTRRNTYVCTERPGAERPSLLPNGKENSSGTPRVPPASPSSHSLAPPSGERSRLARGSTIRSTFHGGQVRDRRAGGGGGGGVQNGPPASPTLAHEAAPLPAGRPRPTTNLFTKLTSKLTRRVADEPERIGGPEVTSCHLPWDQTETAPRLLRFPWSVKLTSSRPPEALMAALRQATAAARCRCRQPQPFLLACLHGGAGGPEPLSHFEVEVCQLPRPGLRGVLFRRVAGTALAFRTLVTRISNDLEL", "settings": "10 µM; read-out: Activity (%), MARK4(h)", "summary_of_the_method": "as §1"}, "[20]": {"target": "panel of human kinases (kinase named in endpoint) (Homo sapiens, UniProt Q9H2K8)", "sequence (Q9H2K8 whole entry)": "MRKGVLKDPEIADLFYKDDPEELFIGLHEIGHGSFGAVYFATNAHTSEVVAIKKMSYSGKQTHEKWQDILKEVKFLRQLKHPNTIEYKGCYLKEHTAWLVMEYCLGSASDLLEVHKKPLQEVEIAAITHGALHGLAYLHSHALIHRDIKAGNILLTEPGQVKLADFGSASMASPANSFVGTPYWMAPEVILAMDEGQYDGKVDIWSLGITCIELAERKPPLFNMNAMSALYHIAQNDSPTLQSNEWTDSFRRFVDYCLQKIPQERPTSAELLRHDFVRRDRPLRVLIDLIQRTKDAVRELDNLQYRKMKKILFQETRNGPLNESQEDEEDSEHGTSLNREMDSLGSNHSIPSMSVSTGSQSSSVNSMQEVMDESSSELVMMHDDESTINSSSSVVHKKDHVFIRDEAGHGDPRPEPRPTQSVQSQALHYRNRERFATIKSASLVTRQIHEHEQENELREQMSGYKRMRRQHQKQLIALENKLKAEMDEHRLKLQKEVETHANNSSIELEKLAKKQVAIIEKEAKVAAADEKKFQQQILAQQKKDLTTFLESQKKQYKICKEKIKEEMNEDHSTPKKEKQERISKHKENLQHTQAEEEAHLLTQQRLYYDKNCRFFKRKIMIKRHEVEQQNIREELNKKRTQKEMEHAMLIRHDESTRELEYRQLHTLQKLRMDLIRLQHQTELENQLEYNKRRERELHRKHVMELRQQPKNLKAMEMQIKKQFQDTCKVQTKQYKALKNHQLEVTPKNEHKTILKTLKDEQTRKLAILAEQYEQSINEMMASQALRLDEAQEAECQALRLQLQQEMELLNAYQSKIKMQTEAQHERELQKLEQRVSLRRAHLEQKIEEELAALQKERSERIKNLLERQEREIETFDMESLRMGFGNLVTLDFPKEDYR", "settings": "10 µM; read-out: Activity (%), TAO3(h)", "summary_of_the_method": "as §1"}, "[21]": {"target": "panel of human kinases (kinase named in endpoint) (Homo sapiens, UniProt Q9H422)", "settings": "10 µM; read-out: Activity (%), HIPK3(h)", "summary_of_the_method": "as §1"}, "[22]": {"target": "panel of human kinases (kinase named in endpoint) (Homo sapiens, UniProt Q9NRH2)", "settings": "10 µM; read-out: Activity (%), SNRK(h)", "summary_of_the_method": "as §1"}, "[23]": {"target": "panel of human kinases (kinase named in endpoint) (Homo sapiens, UniProt Q9NY57)", "settings": "10 µM; read-out: Activity (%), STK32B(h)", "summary_of_the_method": "as §1"}, "[24]": {"target": "panel of human kinases (kinase named in endpoint) (Homo sapiens, UniProt Q9UBE8)", "settings": "10 µM; read-out: Activity (%), NLK(h)", "summary_of_the_method": "as §1"}, "[25]": {"target": "panel of human kinases (kinase named in endpoint) (Homo sapiens, UniProt Q9UK32)", "settings": "10 µM; read-out: Activity (%), Rsk4(h)", "summary_of_the_method": "as §1"}, "[26]": {"target": "panel of human kinases (kinase named in endpoint) (Homo sapiens, UniProt Q9UPZ9)", "settings": "10 µM; read-out: Activity (%), ICK(h)", "summary_of_the_method": "as §1"}}, "note": "Read-outs that look alike come from different tables or passages of the source."}
{"smiles": "CC(C)C(=O)Nc1nc2cc(-c3ccc4c(c3)c(C(=O)NC(C)c3ccccc3)cn4C)ccn2n1", "note": "(stereo not drawn) [RI-962]", "values": [{"measurement": "activity at 10 µM", "setting": "[1]", "result": 88, "unit": "%"}, {"measurement": "activity at 10 µM", "setting": "[2]", "result": 83, "unit": "%"}, {"measurement": "activity at 10 µM", "setting": "[3]", "result": 83, "unit": "%"}, {"measurement": "activity at 10 µM", "setting": "[4]", "result": 108, "unit": "%"}, {"measurement": "activity at 10 µM", "setting": "[5]", "result": 92, "unit": "%"}, {"measurement": "activity at 10 µM", "setting": "[6]", "result": 64, "unit": "%"}, {"measurement": "activity at 10 µM", "setting": "[7]; read-out: Activity (%), IR(h)", "result": 103, "unit": "%"}, {"measurement": "activity at 10 µM", "setting": "[7]; read-out: Activity (%), IR(h), activated", "result": 89, "unit": "%"}, {"measurement": "activity at 10 µM", "setting": "[8]", "result": 96, "unit": "%"}, {"measurement": "activity at 10 µM", "setting": "[9]", "result": 93, "unit": "%"}, {"measurement": "activity at 10 µM", "setting": "[10]", "result": 85, "unit": "%"}, {"measurement": "activity at 10 µM", "setting": "[11]", "result": 108, "unit": "%"}, {"measurement": "activity at 10 µM", "setting": "[12]", "result": 98, "unit": "%"}, {"measurement": "activity at 10 µM", "setting": "[13]", "result": 67, "unit": "%"}, {"measurement": "activity at 10 µM", "setting": "[14]", "result": 95, "unit": "%"}, {"measurement": "activity at 10 µM", "setting": "[15]", "result": 77, "unit": "%"}, {"measurement": "activity at 10 µM", "setting": "[16]", "result": 121, "unit": "%"}, {"measurement": "activity at 10 µM", "setting": "[17]", "result": 108, "unit": "%"}, {"measurement": "activity at 10 µM", "setting": "[18]", "result": 85, "unit": "%"}, {"measurement": "activity at 10 µM", "setting": "[19]", "result": 102, "unit": "%"}, {"measurement": "activity at 10 µM", "setting": "[20]", "result": 86, "unit": "%"}, {"measurement": "activity at 10 µM", "setting": "[21]", "result": 89, "unit": "%"}, {"measurement": "activity at 10 µM", "setting": "[22]", "result": 121, "unit": "%"}, {"measurement": "activity at 10 µM", "setting": "[23]", "result": 85, "unit": "%"}, {"measurement": "activity at 10 µM", "setting": "[24]", "result": 93, "unit": "%"}, {"measurement": "activity at 10 µM", "setting": "[25]", "result": 61, "unit": "%"}, {"measurement": "activity at 10 µM", "setting": "[26]", "result": 102, "unit": "%"}]}
